# What was measured:
# human recombinant DAT = biological target: T1, human recombinant DAT (Homo sapiens, UniProt Q01959); experiment: [3H]-WIN35428 equilibrium binding, CHO-K1-hDAT membranes; settings: mean (95% CI), 3 to 9 experiments, read-out: Transporter Binding: pKi DAT (converted)
# T1 construct: expressed in transfected cells; 'hDAT cells' for uptake
# Source text: (§1) The in vitro pharmacology of TD-9855 (4-[2-(2, 4, 6-trifluorophenoxymethyl)phenyl]piperidine; Figure 1) at human recombinant and rat native monoamine transporters was characterized as described previously ([Tsuruda et al., 2010]; [Shen et al., 2013]). Radioligands were sourced commercially (Perkin Elmer Life Sciences or GE Healthcare Life Sciences). Briefly, membranes prepared from HEK293 (Human Embryonic Kidney 293) cells stably-transfected with human recombinant SERT (HEK293-hSERT), NET (HEK293-hNET), or DAT ([…]) were incubated for 1hr at 22°C in the absence, or presence, of TD-9855 and [^3H]-citalopram (1.0nM) for SERT, [^3H]-nisoxetine (2.0nM) for NET, and [^3H]-WIN35428 (3.0nM) for DAT in 50mM Tris-HCl, 120mM NaCl, 5mM KCl, 0.025% BSA, 100 μM ascorbic acid, pH 7.4. Rat cortical membrane preparations were incubated with [^3H]-citalopram (2.0nM) for SERT or [^3H]-nisoxetine (4.0nM) for NET for 1hr at 22°C. […] Binding and uptake assays were terminated by rapid filtration and radioactivity, determined by liquid scintillation spectroscopy.
# P-gp = test system: P-gp; design: method as in Theravance Biopharma US, Inc., data on file; settings: ref Theravance Biopharma US, Inc., data on file; cited from earlier work
# NET = NET (Homo sapiens, UniProt P23975); experiment: Transporter binding kinetics in vitro at human NET
# NET, sequence (P23975 whole entry): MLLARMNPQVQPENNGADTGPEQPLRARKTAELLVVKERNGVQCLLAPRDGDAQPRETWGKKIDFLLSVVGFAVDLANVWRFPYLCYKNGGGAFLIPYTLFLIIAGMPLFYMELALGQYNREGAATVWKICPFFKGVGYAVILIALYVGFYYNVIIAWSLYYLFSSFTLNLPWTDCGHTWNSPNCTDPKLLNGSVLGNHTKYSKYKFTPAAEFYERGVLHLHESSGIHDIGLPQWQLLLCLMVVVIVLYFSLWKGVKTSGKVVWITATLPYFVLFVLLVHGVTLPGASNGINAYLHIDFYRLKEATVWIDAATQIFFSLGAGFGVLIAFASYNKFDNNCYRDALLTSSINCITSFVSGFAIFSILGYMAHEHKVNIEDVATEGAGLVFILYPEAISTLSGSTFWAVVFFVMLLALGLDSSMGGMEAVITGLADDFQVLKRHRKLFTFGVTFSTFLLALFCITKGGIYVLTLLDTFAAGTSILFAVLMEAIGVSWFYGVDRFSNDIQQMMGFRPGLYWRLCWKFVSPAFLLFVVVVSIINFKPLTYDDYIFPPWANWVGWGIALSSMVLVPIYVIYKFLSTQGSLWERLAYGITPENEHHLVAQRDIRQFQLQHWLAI
# SERT [1] = biological target: T2, SERT (Rattus norvegicus, UniProt P31652); experiment: Ex vivo SERT occupancy in rat spinal cord with PK/PD modeling; settings: estimate (% CV)
# T2 construct: from tissue; host or cells: rat lumbar spinal cord after oral dosing
# T2 sequence (P31652 whole entry): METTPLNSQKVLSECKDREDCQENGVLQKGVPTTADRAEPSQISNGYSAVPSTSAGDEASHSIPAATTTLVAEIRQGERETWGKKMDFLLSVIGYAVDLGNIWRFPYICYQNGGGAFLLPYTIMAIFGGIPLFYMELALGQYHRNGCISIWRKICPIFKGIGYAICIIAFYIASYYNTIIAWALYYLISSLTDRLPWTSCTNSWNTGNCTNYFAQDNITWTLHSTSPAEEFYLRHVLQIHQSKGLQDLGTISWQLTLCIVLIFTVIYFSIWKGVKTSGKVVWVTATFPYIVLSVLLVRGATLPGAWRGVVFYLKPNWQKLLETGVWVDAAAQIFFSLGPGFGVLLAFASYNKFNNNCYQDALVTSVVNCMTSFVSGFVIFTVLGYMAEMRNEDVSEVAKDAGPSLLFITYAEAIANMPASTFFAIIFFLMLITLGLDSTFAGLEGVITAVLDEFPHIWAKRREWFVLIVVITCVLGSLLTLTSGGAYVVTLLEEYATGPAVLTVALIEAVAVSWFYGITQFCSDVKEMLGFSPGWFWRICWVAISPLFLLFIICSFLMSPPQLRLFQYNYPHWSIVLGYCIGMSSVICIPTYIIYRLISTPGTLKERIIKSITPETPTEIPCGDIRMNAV
# Experimental: TD-9855 Rat Administration and Sampling — Rats (n = 6/timepoint/dose level) received a single oral dose of TD-9855 (0.3, 1, 5, 10, 30, and 60mg/kg) and were euthanized by decapitation at specified time points (0.5, 2, 4, 6, and 8hr for 5mg/kg dose level; 2hr for 0.3, 1, 10, 30, and 60mg/kg dose levels) post-administration. Spinal cords were dissected for ex vivo transporter occupancy and PK assessments from the same animals. The spinal cord was harvested by hydraulic extrusion using phosphate-buffered saline, and the lumbar segment dissected and frozen on dry ice. The remaining spinal cord segments were collected and homogenized in water (25% w/w) for PK analysis. All samples were stored at -80 °C until analysis.
# A kinetic radioligand binding assay was used to determine NET and SERT occupancy in rat spinal cord, as described previously ([Bourdet et al., 2012]).
# Rat PK/PD Modeling — PK/PD parameters were estimated by a compartmental modeling approach (WinNonlin Version 5.0.1, Pharsight Corporation). One- and two-compartment PK models with first-order absorption and elimination were evaluated. The one-compartment model was selected. The pharmacodynamic model was an effect compartment Emax model linked directly to the central PK compartment (WinNonlin PK Model 3, PD Model 101). Selection of models was based upon best fit in terms of visual inspection, Akaike Information Criteria, and weighted residual sum of squares using the Gauss-Newton minimization method. The following parameters were estimated:
# Emax (% occupancy): Maximal SERT or NET occupancy in spinal cord
# keo (hr^-1): First-order equilibration rate constant between the central pharmacokinetic compartment and the pharmacodynamic effect compartment
# rat native NET [2] = biological target: rat native NET (Rattus norvegicus, UniProt Q63380); experiment: [3H]-NE uptake inhibition in rat cortical synaptosomes; assay type: biochemical; settings: Rat; mean (95% CI), 3 to 9 experiments
# rat native NET (Rattus norvegicus, UniProt Q63380), sequence (Q63380 1-617): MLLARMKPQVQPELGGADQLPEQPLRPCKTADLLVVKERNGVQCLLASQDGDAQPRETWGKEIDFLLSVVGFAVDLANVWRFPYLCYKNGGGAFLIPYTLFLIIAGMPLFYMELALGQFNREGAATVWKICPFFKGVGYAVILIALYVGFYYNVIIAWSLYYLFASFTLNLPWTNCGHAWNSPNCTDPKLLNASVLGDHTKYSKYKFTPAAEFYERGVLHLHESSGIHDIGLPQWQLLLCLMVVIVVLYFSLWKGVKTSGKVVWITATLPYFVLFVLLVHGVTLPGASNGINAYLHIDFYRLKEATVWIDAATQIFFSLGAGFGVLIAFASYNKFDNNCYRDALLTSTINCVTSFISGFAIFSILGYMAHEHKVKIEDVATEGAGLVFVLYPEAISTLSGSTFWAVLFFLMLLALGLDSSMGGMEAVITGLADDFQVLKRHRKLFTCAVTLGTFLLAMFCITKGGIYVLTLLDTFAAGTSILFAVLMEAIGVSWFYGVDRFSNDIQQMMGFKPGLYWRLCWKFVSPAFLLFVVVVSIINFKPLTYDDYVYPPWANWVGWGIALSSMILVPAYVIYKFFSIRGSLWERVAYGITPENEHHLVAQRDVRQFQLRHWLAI
# Source text: as §1
# rat native NET [3] = experiment: as above; assay type: biochemical; settings: rat cortical synaptosomes, uptake
# Source text: as §1
# SERT [4] = biological target: SERT (Homo sapiens, UniProt P31645); experiment: [3H]-citalopram equilibrium binding, HEK293-hSERT membranes; design: expressed in transfected cells; host or cells: HEK293 (HEK293-hSERT), stably transfected; settings: mean (95% CI), 3 to 9 experiments, read-out: Transporter Binding: pKi SERT (converted)
# SERT (Homo sapiens, UniProt P31645), sequence (P31645 whole entry): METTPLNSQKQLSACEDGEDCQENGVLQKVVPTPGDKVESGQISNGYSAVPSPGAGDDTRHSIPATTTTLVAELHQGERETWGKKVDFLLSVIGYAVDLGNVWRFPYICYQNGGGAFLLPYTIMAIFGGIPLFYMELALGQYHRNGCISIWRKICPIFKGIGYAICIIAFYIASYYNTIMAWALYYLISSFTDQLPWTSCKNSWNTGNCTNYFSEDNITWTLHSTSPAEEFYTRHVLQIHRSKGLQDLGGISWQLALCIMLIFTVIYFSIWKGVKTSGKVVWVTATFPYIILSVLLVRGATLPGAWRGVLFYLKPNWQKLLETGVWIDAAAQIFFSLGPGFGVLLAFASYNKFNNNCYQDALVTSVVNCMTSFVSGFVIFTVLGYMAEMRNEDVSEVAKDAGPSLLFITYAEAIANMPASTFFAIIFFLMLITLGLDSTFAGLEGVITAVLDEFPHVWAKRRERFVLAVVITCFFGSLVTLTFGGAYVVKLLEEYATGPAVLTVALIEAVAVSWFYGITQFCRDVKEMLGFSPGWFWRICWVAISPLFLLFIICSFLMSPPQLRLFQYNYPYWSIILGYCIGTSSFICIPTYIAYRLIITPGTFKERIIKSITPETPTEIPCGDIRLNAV
# Source text: as §1
# T1 sequence (Q01959 whole entry): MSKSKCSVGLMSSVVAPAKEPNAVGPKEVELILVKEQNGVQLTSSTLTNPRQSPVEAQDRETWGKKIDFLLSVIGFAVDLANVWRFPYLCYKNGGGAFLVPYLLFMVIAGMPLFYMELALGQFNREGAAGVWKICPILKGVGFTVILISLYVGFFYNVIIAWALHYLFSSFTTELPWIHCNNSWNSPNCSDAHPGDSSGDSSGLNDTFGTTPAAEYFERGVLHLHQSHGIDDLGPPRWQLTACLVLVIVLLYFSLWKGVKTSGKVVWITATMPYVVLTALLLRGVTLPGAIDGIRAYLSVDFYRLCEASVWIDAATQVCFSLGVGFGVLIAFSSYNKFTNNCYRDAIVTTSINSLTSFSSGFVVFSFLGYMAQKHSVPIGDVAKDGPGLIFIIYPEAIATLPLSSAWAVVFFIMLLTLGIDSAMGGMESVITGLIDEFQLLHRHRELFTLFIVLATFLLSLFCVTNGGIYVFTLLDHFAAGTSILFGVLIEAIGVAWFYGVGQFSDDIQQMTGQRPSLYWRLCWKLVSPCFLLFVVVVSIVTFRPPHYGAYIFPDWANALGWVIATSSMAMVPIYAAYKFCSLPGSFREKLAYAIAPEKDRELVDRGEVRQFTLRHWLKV
smiles,measurement,setting,value
"Fc1cc(F)c(OCc2ccccc2C2CCNCC2)c(F)c1 [TD-9855, 4-[2-(2,4,6-trifluorophenoxymethyl)phenyl]piperidine]",Ki,human recombinant DAT,200 nM
same,P-gp substrate status,P-gp,non-P-gp substrate
same,kon,NET; read-out: association rate constant at NET (converted),917000 M⁻¹ s⁻¹
same,koff,NET; read-out: dissociation rate constant at NET (converted),0.00115 s⁻¹
same,"Emax (% Occupancy), SERT","SERT [1]; rat spinal cord, oral 0.3-60mg/kg",79.0 (53) % Occupancy
same,EC50,"SERT [1]; rat spinal cord, plasma EC50",158 nM
same,"keo, SERT","SERT [1]; rat, equilibration rate constant plasma to effect compartment",11.0 (86) hr^-1
same,Neurotransmitter Uptake Inhibition: pIC50 NET,rat native NET [2],"8.9 (8.6, 9.1)"
same,functional selectivity for NET over SERT,rat native NET [3],10 fold
same,Ki,SERT [4],3.16 nM

# Reference: article PMC4368888, “Preclinical to Clinical Translation of CNS Transporter Occupancy of TD-9855, a Novel Norepinephrine and Serotonin Reuptake Inhibitor” (International Journal of Neuropsychopharmacology, 2015)
